Patent publication US11076594B2, “Pyrazolone compound or salt thereof, preparation method therefor, herbicide composition and use thereof” (QINGDAO KINGAGROOT CHEMICAL COMPOUNDS CO., LTD., priority 2015, dated 2021)

Tests used:
Type in all cases: in vivo
wheat [1] = experiment: wheat field test, crop selectivity, greenhouse spray at 4 leaf stage; conditions: 4 weeks after treatment
Outline: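 Potted plants grown in greenhouse were sprayed at the 4 leaf stage, 2–3 weeks post-sowing, with compound in acetone plus methyl oleate emulsion diluted in water. After 4 weeks of further greenhouse culture, growth control was scored as fresh weight control rate.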

echinochloa = experiment: weed control effect in post-emergence stage (Table 1); parameters: key: Level 10: completely dead; Level 9: above 95% growth control rate; Level 8: above 90% growth control rate; Level 7: above 80% growth control rate; Level 6: above 70% growth control rate; Level 5: above 60% growth control rate; Level 4: above 50% growth control rate; Level 3: above 20% growth control rate; Level 2: 5%-20% growth control rate; Level 1: below 5% growth control rate; conditions: post-emergence spray at 4-5 leaf stage, 250 g/ha active ingredient with 450 kg/ha water, rated after 3 weeks in greenhouse
Outline: (§1)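 Fresh-weight reduction is recorded three weeks after a sprayer applies the acetone/Tween 80 aqueous compound solution to greenhouse-grown plants at the 4-5 leaf stage.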

foxtail = experiment: as above; parameters: key: Level 10: completely dead; Level 9: above 95% growth control rate; Level 8: above 90% growth control rate; Level 7: above 80% growth control rate; Level 6: above 70% growth control rate; Level 5: above 60% growth control rate; Level 4: above 50% growth control rate; Level 3: above 20% growth control rate; Level 2: 5%-20% growth control rate; Level 1: below 5% growth control rate; conditions: post-emergence spray at 4-5 leaf stage, 250 g/ha active ingredient with 450 kg/ha water, rated after 3 weeks in greenhouse
Outline: as §1

rorippa indica = experiment: as above; parameters: key: Level 10: completely dead; Level 9: above 95% growth control rate; Level 8: above 90% growth control rate; Level 7: above 80% growth control rate; Level 6: above 70% growth control rate; Level 5: above 60% growth control rate; Level 4: above 50% growth control rate; Level 3: above 20% growth control rate; Level 2: 5%-20% growth control rate; Level 1: below 5% growth control rate; conditions: post-emergence spray at 4-5 leaf stage, 250 g/ha active ingredient with 450 kg/ha water, rated after 3 weeks in greenhouse
Outline: as §1

crab grass = experiment: as above; parameters: key: Level 10: completely dead; Level 9: above 95% growth control rate; Level 8: above 90% growth control rate; Level 7: above 80% growth control rate; Level 6: above 70% growth control rate; Level 5: above 60% growth control rate; Level 4: above 50% growth control rate; Level 3: above 20% growth control rate; Level 2: 5%-20% growth control rate; Level 1: below 5% growth control rate; conditions: post-emergence spray at 4-5 leaf stage, 250 g/ha active ingredient with 450 kg/ha water, rated after 3 weeks in greenhouse
Outline: as §1

Indian mallow = experiment: as above; parameters: key: Level 10: completely dead; Level 9: above 95% growth control rate; Level 8: above 90% growth control rate; Level 7: above 80% growth control rate; Level 6: above 70% growth control rate; Level 5: above 60% growth control rate; Level 4: above 50% growth control rate; Level 3: above 20% growth control rate; Level 2: 5%-20% growth control rate; Level 1: below 5% growth control rate; conditions: post-emergence spray at 4-5 leaf stage, 250 g/ha active ingredient with 450 kg/ha water, rated after 3 weeks in greenhouse
Outline: as §1

bidens bipinnata = experiment: as above; parameters: key: Level 10: completely dead; Level 9: above 95% growth control rate; Level 8: above 90% growth control rate; Level 7: above 80% growth control rate; Level 6: above 70% growth control rate; Level 5: above 60% growth control rate; Level 4: above 50% growth control rate; Level 3: above 20% growth control rate; Level 2: 5%-20% growth control rate; Level 1: below 5% growth control rate; conditions: post-emergence spray at 4-5 leaf stage, 250 g/ha active ingredient with 450 kg/ha water, rated after 3 weeks in greenhouse
Outline: as §1

corn = experiment: post-emergence stage experiment, crop (Table 1); conditions: post-emergence spray at 4-5 leaf stage, 250 g/ha active ingredient with 450 kg/ha water, rated after 3 weeks in greenhouse
Outline: as §1

wheat [2] = experiment: post-emergence stage experiment, crop (Table 1); conditions: post-emergence spray at 4-5 leaf stage, 250 g/ha active ingredient with 450 kg/ha water, rated after 3 weeks in greenhouse
Outline: as §1

rice = experiment: post-emergence stage experiment, crop (Table 1); conditions: post-emergence spray at 4-5 leaf stage, 250 g/ha active ingredient with 450 kg/ha water, rated after 3 weeks in greenhouse
Outline: as §1

rice (japonica rice) = experiment: transplanted rice safety evaluation; conditions: 125 g/ha ai; treated 5 days after transplantation; 21 days after treatment
Protocol: The activity level standard of harmful plant destruction (i.e. growth control rate) is as follows: In addition, the rice field soil that loaded into the 1/1,000,000 ha pot was leveled to keep water storage at 3-4 cm depth. The 3 leaf stage rice (japonica rice) was transplanted at 3 cm of transplanting depth the next day. The compound of the present invention was treated by the same way after 5 days of transplantation. The fertility condition of echinochloa, scirpus juncoides, bidens tripartite and sagittaria trifolia 14 days after the treatment of the compound of the invention and the fertility condition of rice 21 days after the treatment of the compound of the invention respectively with the naked eye.

[3] = 250 g/ha of the active substance
[4] = 2 g/mu, sprayed at 4 leaf stage
[5] = 4 g/mu, sprayed at 4 leaf stage
[6] = 8 g/mu, sprayed at 4 leaf stage
[7] = 16 g/mu, sprayed at 4 leaf stage
[8] = 32 g/mu, sprayed at 4 leaf stage

SMILES	effect on crop, Wheat (level) (wheat [2])	Wheat (activity level, crop damage) (wheat [1]; [3])	weed control effect, Echinochloa (level) (echinochloa)	weed control effect, Green foxtail (level) (foxtail)	weed control effect, Rorippa indica (level) (rorippa indica)	weed control effect, Crab grass (level) (crab grass)	weed control effect, Indian mallow (level) (Indian mallow)	weed control effect, Bidens bipinnata (level) (bidens bipinnata)	effect on crop, Corn (level) (corn)	effect on crop, Rice (level) (rice)	Rice (activity level, transplanted rice safety) (rice (japonica rice))	Wheat (activity level, crop damage) (wheat [1]; [4])	Wheat (activity level, crop damage) (wheat [1]; [5])	Wheat (activity level, crop damage) (wheat [1]; [6])	Wheat (activity level, crop damage) (wheat [1]; [7])	Wheat (activity level, crop damage) (wheat [1]; [8])
CCOc1c(C(=O)Oc2c(C(=O)c3ccc(C(F)(F)F)c(-n4cc(C)cn4)c3Cl)c(C3CC3)nn2C)cnn1C [Compound 092]	1 (Level 1: below 5% growth control rate)	1 (Level 1: below 5% growth control rate)	6 (Level 6: above 70% growth control rate)	8 (Level 8: above 90% growth control rate)	10	3 (Level 3: above 20% growth control rate)	10	8 (Level 8: above 90% growth control rate)	2 (Level 2: 5%-20% growth control rate)	2 (Level 2: 5%-20% growth control rate)	0	–	–	–	–	–
CCOc1c(C(=O)Oc2c(C(=O)c3ccc(C(F)(F)F)c(-n4cccn4)c3Cl)c(C)nn2C)cnn1C [Compound 071]	0	0	6 (Level 6: above 70% growth control rate)	8 (Level 8: above 90% growth control rate)	10	4 (Level 4: above 50% growth control rate)	10	7 (Level 7: above 80% growth control rate)	1 (Level 1: below 5% growth control rate)	1 (Level 1: below 5% growth control rate)	0	–	–	–	–	–
Cc1nn(C)cc1C(=O)Oc1c(C(=O)c2ccc(C(F)(F)F)c(N3CCCC3=O)c2Cl)c(C)nn1C [Compound 023]	4 (Level 4: above 50% growth control rate)	–	10	10	10	10	10	10	5 (Level 5: above 60% growth control rate)	4 (Level 4: above 50% growth control rate)	0	1 (Level 1: below 5% growth control rate)	2 (Level 2: 5%-20% growth control rate)	3 (Level 3: above 20% growth control rate)	4 (Level 4: above 50% growth control rate)	4 (Level 4: above 50% growth control rate)
CCn1nc(C)c(C(=O)c2ccc(C(F)(F)F)c(-n3cccn3)c2Cl)c1OC(=O)c1cn(C)nc1C [Compound 129]	1 (Level 1: below 5% growth control rate)	1 (Level 1: below 5% growth control rate)	10	10	10	0	3 (Level 3: above 20% growth control rate)	9 (Level 9: above 95% growth control rate)	3 (Level 3: above 20% growth control rate)	6 (Level 6: above 70% growth control rate)	2 (Level 2: 5%-20% growth control rate)	–	–	–	–	–
CCOc1c(C(=O)Oc2c(C(=O)c3ccc(C(F)(F)F)c(N4CCCCC4=O)c3Cl)c(C)nn2C)cnn1C [Compound 037]	0	0	10	10	10	6 (Level 6: above 70% growth control rate)	10	10	0	3 (Level 3: above 20% growth control rate)	2 (Level 2: 5%-20% growth control rate)	–	–	–	–	–

Continued, in another order:

effect on crop, Wheat (level) (wheat [2])	SMILES	Wheat (activity level, crop damage) (wheat [1]; [3])	weed control effect, Echinochloa (level) (echinochloa)	weed control effect, Green foxtail (level) (foxtail)	weed control effect, Rorippa indica (level) (rorippa indica)	weed control effect, Crab grass (level) (crab grass)	weed control effect, Indian mallow (level) (Indian mallow)	weed control effect, Bidens bipinnata (level) (bidens bipinnata)	effect on crop, Corn (level) (corn)	effect on crop, Rice (level) (rice)	Rice (activity level, transplanted rice safety) (rice (japonica rice))	Wheat (activity level, crop damage) (wheat [1]; [4])	Wheat (activity level, crop damage) (wheat [1]; [5])	Wheat (activity level, crop damage) (wheat [1]; [6])	Wheat (activity level, crop damage) (wheat [1]; [7])	Wheat (activity level, crop damage) (wheat [1]; [8])
0	Cc1nn(C)c(O)c1C(=O)c1ccc(C(F)(F)F)c(N2CCCCC2=O)c1Cl [Compound 035]	–	7 (Level 7: above 80% growth control rate)	10	9 (Level 9: above 95% growth control rate)	8 (Level 8: above 90% growth control rate)	9 (Level 9: above 95% growth control rate)	9 (Level 9: above 95% growth control rate)	–	6 (Level 6: above 70% growth control rate)	0	0	0	0	0	0
0	CCOc1c(C(=O)Oc2c(C(=O)c3ccc(C(F)(F)F)c(-n4cc(C)cn4)c3Cl)cnn2C)cnn1C [Compound 081]	0	10	8 (Level 8: above 90% growth control rate)	10	7 (Level 7: above 80% growth control rate)	10	10	2 (Level 2: 5%-20% growth control rate)	3 (Level 3: above 20% growth control rate)	1 (Level 1: below 5% growth control rate)	–	–	–	–	–
